Earlier results in patent publication US6750249B1, “Controlled release oral preparations of esculetin and its derivatives” (priority 1998, dated 2004).

Test system: glycosaminoglycan in the matrix
Details: stimulation of interleukin-1 and the like; Japanese Patent Application Laid-open No. 312925/1994

SMILES | depression of a decrease in the amount of glycosaminoglycan in the matrix
Cc1cc(=O)oc2cc(O)c(O)cc12 [4-methyl esculetin] | strongly depress a decrease in the amount of glycosaminoglycan
O=c1ccc2cc(O)c(O)cc2o1 [esculetin] | strongly depress a decrease in the amount of glycosaminoglycan
